This is an account of results in BindingDB's records for PubMed 20068177 (Wyeth Research).

For the test, the target named is Phosphatidylinositol 3-kinase regulatory subunit alpha/4,5-bisphosphate 3-kinase catalytic subunit alpha isoform (Homo sapiens, UniProt P27986+P42336). The experiment in a line: Inhibition of recombinant human full-length N-terminal His6-tagged p110alpha/full length untagged human p85alpha expressed in baculovirus infected Sf21 insect cells using PIP2 as substrate measured after 15 to 30 mins by fluorescence polarization assay.
Sequence of Phosphatidylinositol 3-kinase regulatory subunit alpha/4,5-bisphosphate 3-kinase catalytic subunit alpha isoform (P27986 whole entry, canonical isoform): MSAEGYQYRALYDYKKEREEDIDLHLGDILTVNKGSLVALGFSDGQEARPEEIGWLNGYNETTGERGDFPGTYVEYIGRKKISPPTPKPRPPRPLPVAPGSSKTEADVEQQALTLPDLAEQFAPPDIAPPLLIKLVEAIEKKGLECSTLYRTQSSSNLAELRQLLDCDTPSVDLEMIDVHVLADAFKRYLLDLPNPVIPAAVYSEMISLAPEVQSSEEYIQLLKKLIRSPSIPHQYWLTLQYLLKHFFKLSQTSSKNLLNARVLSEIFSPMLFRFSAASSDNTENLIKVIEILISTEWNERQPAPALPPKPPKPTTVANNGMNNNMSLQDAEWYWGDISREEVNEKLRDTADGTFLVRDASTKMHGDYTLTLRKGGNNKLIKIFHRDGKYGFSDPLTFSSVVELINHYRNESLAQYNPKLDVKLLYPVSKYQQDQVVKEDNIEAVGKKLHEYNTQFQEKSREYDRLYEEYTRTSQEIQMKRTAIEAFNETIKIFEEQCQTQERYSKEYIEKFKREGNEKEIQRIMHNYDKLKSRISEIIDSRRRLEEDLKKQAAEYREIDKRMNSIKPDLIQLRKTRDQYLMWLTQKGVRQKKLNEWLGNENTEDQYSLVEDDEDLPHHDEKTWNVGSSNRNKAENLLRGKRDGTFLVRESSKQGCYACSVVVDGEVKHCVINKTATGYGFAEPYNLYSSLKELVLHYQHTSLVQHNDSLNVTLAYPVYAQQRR
Sequence of Phosphatidylinositol 3-kinase regulatory subunit alpha/4,5-bisphosphate 3-kinase catalytic subunit alpha isoform (P42336 whole entry, canonical isoform): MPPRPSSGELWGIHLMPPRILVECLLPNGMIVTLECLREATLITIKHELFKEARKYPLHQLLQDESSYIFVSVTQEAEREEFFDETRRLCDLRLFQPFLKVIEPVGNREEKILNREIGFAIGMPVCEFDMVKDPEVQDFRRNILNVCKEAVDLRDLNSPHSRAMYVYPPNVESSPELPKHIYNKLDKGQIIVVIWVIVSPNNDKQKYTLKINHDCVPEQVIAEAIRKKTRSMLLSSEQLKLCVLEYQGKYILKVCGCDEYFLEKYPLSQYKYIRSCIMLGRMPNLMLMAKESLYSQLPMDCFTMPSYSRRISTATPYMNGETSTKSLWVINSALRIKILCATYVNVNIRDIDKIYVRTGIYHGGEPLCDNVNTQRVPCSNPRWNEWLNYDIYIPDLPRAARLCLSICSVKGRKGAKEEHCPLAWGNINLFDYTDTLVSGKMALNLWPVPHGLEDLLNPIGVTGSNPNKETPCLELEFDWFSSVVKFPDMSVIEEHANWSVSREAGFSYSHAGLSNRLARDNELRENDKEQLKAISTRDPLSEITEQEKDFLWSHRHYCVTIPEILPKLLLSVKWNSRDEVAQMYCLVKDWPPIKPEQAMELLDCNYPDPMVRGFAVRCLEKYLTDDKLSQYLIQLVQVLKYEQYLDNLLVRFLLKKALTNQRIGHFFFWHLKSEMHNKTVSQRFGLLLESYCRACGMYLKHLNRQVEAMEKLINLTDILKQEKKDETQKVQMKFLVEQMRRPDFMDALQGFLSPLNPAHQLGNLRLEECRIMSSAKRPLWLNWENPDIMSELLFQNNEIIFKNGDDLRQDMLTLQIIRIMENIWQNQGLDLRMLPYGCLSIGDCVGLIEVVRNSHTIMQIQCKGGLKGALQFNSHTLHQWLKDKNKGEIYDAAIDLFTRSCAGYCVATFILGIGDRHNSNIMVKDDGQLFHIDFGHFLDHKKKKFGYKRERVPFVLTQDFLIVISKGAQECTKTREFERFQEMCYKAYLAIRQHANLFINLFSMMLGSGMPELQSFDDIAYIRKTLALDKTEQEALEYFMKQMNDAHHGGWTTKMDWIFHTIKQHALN

With `CNC(=O)Nc1ccc(-c2nc(N3CC4CCC(C3)O4)c3cnn(C4CCC5(CC4)OCCO5)c3n2)cc1` [1-(4-(4-(8-oxa-3-azabicyclo[3.2.1]octan-3-yl)-1-(1,4-dioxaspiro[4.5]decan-8-yl)-1H-pyrazolo[3,4-d]pyrimidin-6-yl)phenyl)-3-methylurea], the IC50 is 1180 nM.
